The values below come from US5166214A, “Use of imidazoles for the treatment of atherosclerosis” (priority 1990, dated 1992).

Where a name gives a salt, the structure may show the parent alone. Read-outs that look alike come from different tables or passages of the source.

The subject of test [1] is murine macrophage-like cell line J774.A1. The test can be described thus: Inhibition of cholesterol esterification in mammalian cells (macrophage assay). It counts as cell-based. As to the method: B. Assay of the Inhibition of Cholesterol Esterification in Mammalian Cells
The esterification of cholesterol was determined in the murine macrophage-like cell line J774.A1. Cells were seeded in 35 mm wells at a density of 300,000 cells per well in 2 mls of Dulbecco's Eagle Medium (DMEM) supplemented with 10% fetal bovine serum (FBS). Cells were incubated at 37° C. in an atmosphere of 5% CO2 and 93% humidity. After 24 hours the media was changed to 0.68 mls 10% FBS-DMEM containing 34 μg of acetylated human low density lipoprotein (ac-LDL) to increase the intracellular concentration of cholesterol and promote esterification. At 41 hours, various inhibitors were added to the cells in DMSO (10 μl/ml maximum). At 43 hours, the cells were pulsed with 0.1 mM ^14 C-oleic acid (10,000 dpm/nmol) complexed with BSA (bovine serum albumin) to follow cholesterol ester formation. The experiment was terminated at 45 hours by washing the monolayers 3 times with 3 ml of Tris-buffered saline at 4° C. The lipids were extracted by incubating the monolayers with 1.5 ml of hexane:isopropanol (3:2, v/v) for 30 min. under gentle agitation. During this period, 10,000 dpm 3H-cholesteryl linoleate and 10 μg of cholesteryl oleate were added as an internal standard and carrier respectively. The organic solvent was removed and the cells were washed with an additional 1.0 ml of hexane: isopropanol which was combined with the original extract. The cells were allowed to dry overnight, digested with 1.5 ml of 0.2N sodium hydroxide for 1 hour and an aliquot of the solubilized protein used for protein determination using the Lowry method. The organic extract was taken to dryness, the residue resuspended in 100 μl of chloroform and the lipids separated on silica gel impregnated glass fiber plates using a hexane:diethylether:acetic acid (170:30:1, v/v/v) solvent system. Individual lipids were visualized with iodine and the cholesteryl ester spot cut out and transferred to scintillation vials to determine the amount of radioactivity. The conversion of oleic acid to cholesteryl ester in the control averaged 0.54 […] and was increased upon the addition of ac-LDL to about 10.69±0.69 […]. […] It should be noted that many of the intermediates had inhibitory activity in the in vitro ACAT assay and in the macrophage assay.

For test [2], the target named is T1, Acyl-CoA: Cholesterol Acyltransferase (ACAT) (Rattus norvegicus, UniProt Q7TQM4).
T1 construct: Microsomes were obtained by differential centrifugation; from tissue; host or cells: liver microsomes of male Sprague Dawley rats
T1 sequence (Q7TQM4 1-524): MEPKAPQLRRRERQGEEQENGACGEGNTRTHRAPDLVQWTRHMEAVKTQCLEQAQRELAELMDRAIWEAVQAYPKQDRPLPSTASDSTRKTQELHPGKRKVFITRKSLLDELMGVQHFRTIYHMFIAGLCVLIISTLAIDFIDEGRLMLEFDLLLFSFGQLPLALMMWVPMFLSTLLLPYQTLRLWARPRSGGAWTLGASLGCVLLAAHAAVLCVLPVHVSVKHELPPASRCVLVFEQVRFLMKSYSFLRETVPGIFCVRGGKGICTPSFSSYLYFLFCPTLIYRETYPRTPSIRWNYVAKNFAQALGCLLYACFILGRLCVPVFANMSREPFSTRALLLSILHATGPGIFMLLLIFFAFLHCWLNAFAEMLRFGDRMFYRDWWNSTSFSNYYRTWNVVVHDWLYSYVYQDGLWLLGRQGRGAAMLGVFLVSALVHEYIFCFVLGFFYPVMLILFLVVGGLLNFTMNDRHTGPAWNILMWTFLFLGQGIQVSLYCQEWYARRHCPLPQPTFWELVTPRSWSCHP
The test can be described thus: Inhibition of acyl-CoA: cholesterol acyltransferase (ACAT) in hepatic microsomes (in vitro). The test is classed as biochemical, rat (male Sprague Dawley). As to the method:
A. Assay of the Inhibition of Acyl-CoA: Cholesterol Acyltransferase (ACAT) in Hepatic Microsomes
The ability of the compounds to inhibit ACAT, the enzyme responsible for the intracellular synthesis of cholesteryl esters, was tested as follows. Male Sprague Dawley rats weighing 150-300 g, were fed rat chow ad libitum. The animals were fasted for twenty-four hours prior to being sacrificed by decapitation. The livers were perfused in situ with 50 ml of cold 0.25M sucrose, excised, and homogenized in three volumes of 0.1M phosphate buffer, pH 7.4, that contained 0.5 mM EDTA (ethylenediaminetetraacetic acid), 1.0 mM glutathione, 0.25M sucrose and […]. Microsomes were obtained by differential centrifugation; the supernatant from an initial spin at 15,000×g for 15 minutes was centrifuged at 105,000×g for 1 hour to pellet the microsomes. The microsomes were suspended in homogenization buffer, reisolated by centrifugation, and stored at -70° C. Microsomes were used within one month of preparation.
The control assay in a final volume of 200 μl consisted of 200 μg of microsomal protein, 75 μM ^14 C-oleoyl-CoA (10,000 dpm/nmol) in 0.1M phosphate, pH 7.4, that contained 1 mM glutathione. Compounds were added in 5 μl of DMSO (dimethyl sulfoxide) and additional controls were run with DMSO only. All components, except the oleoyl-CoA, were preincubated for 15 min. at 37° C. prior to the initiation of the reaction by the addition of oleoyl-CoA. The assay was terminated after 10 min by the addition of 4 ml of chloroform:methanol (2:1, v/v). 20,000 dpm of ^3 H-cholesteryl oleate and 10 μg of unlabeled cholesteryl oleate and oleic acid were added as an internal standard and carriers, respectively. After allowing 10 min. for lipid extraction, the samples were centrifuged at 1,000×g for 10 min. to separate the solvent layers. The chloroform layer containing the neutral lipids was spotted onto a Baker SI250-Pa silica gel TLC plate and the plate developed using a hexane: diethyl ether: acetic acid (170:30:1 v/v/v) mobile phase. The lipids were visualized by their interaction with iodine vapor and the cholesteryl ester spot was scraped into a scintillation vial and counted.

Where [3] appears, read: J774.A1 macrophages loaded with ac-LDL, 14C-oleic acid, read-out: Cholesterol Esterification IC50.
Where [4] appears, read: rat hepatic microsomes, 75 μM 14C-oleoyl-CoA, pH 7.4, 37° C., read-out: In Vitro ACAT IC50.
The mark [5] stands for this setting: In Vitro ACAT IC50, rat hepatic microsomes, 75 μM 14C-oleoyl-CoA, pH 7.4, 37° C.

With `CCCCCCCN(CCCCCSc1nc(CCC)c(CCC)[nH]1)C(=O)Nc1ccc(F)cc1F` [Example 193, N'-(2,4-difluorophenyl)-N-[5-(4,5-dipropyl-1H-imidazol-2-ylthio)pentyl]-N-heptylurea], the IC50 in test [1] (setting [3]) came out at 2700 nM; in test [2] (setting [4]), 60 nM.
`CCCCCCCN(CCCCCSc1nc(C(C)C)c(C(C)C)[nH]1)C(=O)NC(C)C` [Example 210]: the IC50 in test [1] (setting [3]) was determined as 800 nM; in test [2] (setting [4]), 17 nM.
As to `CCCCCCCN(CCCCCSc1nc(-c2ccccc2)c(-c2ccccc2)[nH]1)C(=O)OCCC` [Example 407, Propyl [5-(4,5-diphenyl-1H-imidazol-2-ylthio)pentyl]heptylcarbamate], the values for the IC50 in test [1] (setting [3]) and in test [2] (setting [4]) were 800 nM and 40 nM, respectively.
As for `CCCCCCCN(CCCCCSc1nc(-c2ccccc2)c(-c2ccccc2)[nH]1)C(=O)Oc1ccc(F)cc1` [Example 406, (4-fluorophenyl)[5-(4,5-diphenyl-1H-imidazol-2-ylthio)pentyl]heptylcarbamate], the IC50 in test [1] (setting [3]) was found to be 600 nM; in test [2] (setting [5]), 10 nM.
For the molecule `CCCCCCCN(CCCCCSc1nc(-c2ccc(OC)cc2)c(-c2ccc(OC)cc2)[nH]1)C(=O)NC(C)C` [Example 202, N-[5-[4,5-bis(4-methoxyphenyl)-1H-imidazol-2-ylthio]pentyl]-N-heptyl-N'-(1-methylethyl)urea], the IC50 in test [1] (setting [3]) was 4 nM; in test [2] (setting [4]) it was 220 nM.
On the same counts, the results for `CCCCCCCN(CCCCCSc1nc(-c2ccc(N(C)C)cc2)c(-c2ccc(N(C)C)cc2)[nH]1)C(=O)NC(C)C` [Example 205, N-[5-[4,5-bis[4-(dimethylamino)phenyl]-1H-imidazol-2-ylthio]pentyl]-N-heptyl-N'-(1-methylethyl)urea] are 3 nM and 74 nM.
The like results for `CCCCCCCN(CCCCCSc1nc(-c2ccc(N(C)C)cc2)c(-c2ccc(N(C)C)cc2)[nH]1)C(=O)Nc1ccc(F)cc1F` [Example 198] were, in that order, 60 nM and 40 nM.
On the same counts, the results for `CCCCCCCN(CCCCCSc1nc(-c2ccc(F)cc2)c(-c2ccc(F)cc2)[nH]1)C(=O)Nc1ccc(F)cc1F` [Example 114, N-[5-[4,5-bis(4-fluorophenyl)-1H-imidazol-2-ylthio]pentyl]-N'-(2,4-difluorophenyl)-N-heptylurea] are 3500 nM and 40 nM.
For `CCCCCCCN(CCCCCSc1nc(-c2ccccn2)c(-c2ccccn2)[nH]1)C(=O)Nc1ccc(F)cc1F` [Example 194], the half-inhibitory concentration (IC50) is 4100 nM in test [1] (setting [3]) and 1900 nM in test [2] (setting [4]).
On to `CCCCCCCN(CCCCCSc1nc(-c2ccco2)c(-c2ccco2)[nH]1)C(=O)Nc1ccc(F)cc1F` [Example 201], for which the half-inhibitory concentration (IC50) in test [1] (setting [3]) is 500 nM; in test [2] (setting [4]) it was 200 nM.
Consider `CCCCCCCN(CCCCCSc1nc(-c2ccc(OC)cc2)c(-c2ccc(OC)cc2)[nH]1)C(=O)Oc1ccccc1` [Example 410], for which the half-inhibitory concentration (IC50) worked out at 30 nM in test [1] (setting [3]) and 640 nM in test [2] (setting [5]).
For the molecule `CCCCCCCNCCCCCSc1nc(-c2ccccc2)c(-c2ccccc2)[nH]1` [N-[5(4,5-diphenyl-1H-imidazol-2-ylthio)pentyl]-1-heptanaminehydrochloride], the IC50 was 6000 nM in test [1] (intermediate, read-out: IC50 in the macrophage assay) and 100 nM in test [2] (intermediate, read-out: IC50 in the in vitro ACAT assay).
Turning to `CCCCCCCN(CCCCCSc1nc(-c2ccccc2)c(-c2ccccc2)[nH]1)C(=O)Nc1ccc(C#N)cc1` [Example 85, N'-(4-cyanophenyl)-N-[5-(4,5-diphenyl-1H-imidazol-2-ylthio)pentyl]-N-heptylurea], the IC50 in test [1] (setting [3]) is 3100 nM; in test [2] (In Vitro ACAT IC50), 60 nM.
Turning to `CCCCCCCN(CCCCCSc1nc(-c2ccc(OC)cc2)c(-c2ccc(OC)cc2)[nH]1)C(=O)Cc1ccc(Cl)c(Cl)c1` [Example 349], the figures for the IC50 in test [1] (setting [3]) and in test [2] (setting [4]) were 90 nM and 200 nM, respectively.
Turning to `CCCCCCCN(CCCCCSc1nc(-c2ccccc2)c(-c2ccccc2)[nH]1)C(=O)CCCC` [Example 342, N-[5-(4,5-diphenyl-1H-imidazol-2-ylthio)pentyl]-N-heptylpentanamide], the results for the IC50 in test [1] (setting [3]) and in test [2] (setting [4]) were 1600 nM and 30 nM, respectively.
As for `CCCCCCCN(CCCCCSc1nc(-c2ccc(N(C)C)cc2)c(-c2ccc(N(C)C)cc2)[nH]1)C(=O)Nc1ccc(F)cc1F` [Example 197, N-[5-[4,5-bis[4-(dimethylamino)phenyl]-1H-imidazol-2-ylthio]pentyl]-N'-(2,4-difluorophenyl)-N-heptylurea], the values for the IC50 in test [1] (setting [3]) and in test [2] (setting [4]) were 100 nM and 119 nM, respectively.
For `CCCCCCCCNC(=O)N(CCCCCSc1nc(-c2ccccc2)c(-c2ccccc2)[nH]1)c1ccccc1` [Example 207, N-[5-(4,5-diphenyl-1H-imidazol-2-ylthio)pentyl]-N'-octyl-N-phenylurea], the IC50 was 600 nM in test [1] (setting [3]) and 9 nM in test [2] (setting [4]).
With `CCCCCCCN(CCCCCSc1nc(C2CCCCC2)c(C2CCCCC2)[nH]1)C(=O)Nc1ccc(F)cc1F` [Example 199, N-[5-(4,5-dicyclohexyl-1H-imidazol-2-ylthio)pentyl]-N'-(2,4-difluorophenyl)-N-heptylurea], the IC50 was found to be 600 nM in test [1] (setting [3]) and 20 nM in test [2] (setting [4]).
Regarding `CCCCCCCN(CCCCCSc1nc(-c2ccccc2)c(-c2ccccc2)[nH]1)C(=O)OCC` [Example 404, Ethyl [5-(4,5-diphenyl-1H-imidazol-2-ylthio)pentyl]heptylcarbamate], the IC50 in test [1] (setting [3]) amounted to 500 nM; in test [2] (setting [4]) it was 33 nM.
As for `CCCCCCCN(CCCCCSc1nc(-c2ccc(Cl)cc2)c(-c2ccc(Cl)cc2)[nH]1)C(=O)Nc1ccc(F)cc1F` [Example 137], the IC50 in test [1] (setting [3]) is 3400 nM; in test [2] (setting [4]) it was 76 nM.
Molecule `CCCCCCCN(CCCCCSc1nc(-c2ccc(N(C)C)cc2)c(-c2ccc(N(C)C)cc2)[nH]1)C(=O)Oc1ccccc1` [Example 409, Phenyl [5-[4,5-bis(4-(dimethylamino)phenyl)-1H-imidazol-2-ylthio]pentyl]heptylcarbamate] had an IC50 in test [2] (setting [5]) of 120 nM.
Regarding `CCCCN(CCCCCCCCSc1nc(-c2ccccc2)c(-c2ccccc2)[nH]1)C(=O)NC(C)C` [Example 262], the half-inhibitory concentration (IC50) in test [2] (setting [4]) came out at 200 nM.

The IC50 is the concentration at which inhibition is half-maximal.
